Where two headings read alike, the source gives them in different places. Marks after values point to notes of the source that are not given here. Each block holds one molecule with its values, some of them ahead of it.
How the values were obtained:
[1] = set-up: method as in doi:10.1021/ac60305a041, doi:10.1021/ja00792a018; conditions: 0.5 M Me4NCl, 25 °C; cited from earlier work
[2] = cited from earlier work
[3] = 0.1 M KNO3, 25 °C, cited from earlier work; for logKAlL: stability constant of Al(III) complex
[4] = set-up: method as in doi:10.1007/s11144-015-0892-6; conditions: 1.0 M NaCl, cited from earlier work
[5] = Stability and protonation constants of the Al(III) complexes (pH-potentiometry, 27Al NMR); assay type: physicochemical; conditions: 0.15 M NaNO3, 25 °C; for logβAlLH−1: cumulative stability constant of AlLH−1; for logKAlLH−1: protonation constant of AlLH−1 species, pH-potentiometry; for logKAlL: stability constant of Al(III) complex, 27Al NMR spectroscopy
Protocol: The stability and protonation constants of the Al(III) complexes of AMPTA, AMPDA-HB, and CD3A-Bn, defined by Equations (2)–(4), were investigated by pH-potentiometry and by multinuclear NMR spectroscopy at 25 °C in 0.15 M NaNO3 solution. (2) KAlL=AlL/Al^3+L (3) KAlLH−1=AlL/AlLH−1H^+ (4) Al^3++L+OH^− ⇌AlLH−1 βAlLH−1=AlLH−1/Al^3+LOH^−
In order to avoid the hydrolysis of the Al(III) ion, the pH-potentiometric titration of the pre-prepared complexes of AMPTA, AMPDA-HB, and CD3A-Bn ligands was performed at pH > 4.0.
To determine the stability constant of the Al(III) complexes, the ^1H and ^27Al NMR spectra of the Al^3+-AMPTA, Al^3+-AMPDA-HB, and Al^3+-CD3A-Bn systems were recorded in the pH range 8.0–12. ^1H and ^27Al NMR spectra of the three systems are shown in Figures S1–S6.
The analysis of the ^27Al NMR data was used for the calculation of the stability constants of the [Al(AMPTA)], [Al(AMPDA-HB)], and [Al(CD3A-Bn)] complexes. Integrals of the ^27Al NMR signal ([Al(OH)4]^− at 81 ppm, ν½ = 11 Hz; see Figures S2, S4 and S6) were used for the calculation of the logKAlL value of the three Al complexes by taking into account the protonation constant of the AlLH−1 species (Equation (3), Table 1) and the known hydrolysis constants of the free Al^3+ ion (logK[Al(OH)]^2+ = −4.60, logK[Al(OH)2]^+ = −9.09, logK[Al(OH)3] = −14.94 and logK[Al(OH)4]^− = −23.08, logK[Al2(OH)2]^4+ = −8.0, logK[Al3(OH)4]^5+ = −13.47, logK[Al13(OH)32]^7+ = −104.81). […] The equilibrium data obtained by pH-potentiometry and multinuclear NMR spectroscopy were used to calculate the species distribution diagram for the Al(III)-AMPTA, Al(III)AMPDA-HB, and Al(III)-CD3A-Bn systems (Figure 1, Figure 2 and Figure 3). The amount of [Al(OH)4]^− species determined by ^27Al NMR studies (Figures S2, S4 and S6) is also shown in Figure 2, Figure 3 and Figure 4.
(§1) The protonation constants of the AMPTA, AMPDA-HB, and CD3A-Bn and those of the Al(III) complexes were determined by pH-potentiometric titration. The metal-to-ligand concentration ratio was 1:1 (the concentration of the ligand was generally 0.002 M). For the pH measurements and titrations, a Metrohm 888 Titrando automatic titration workstation with a Metrohm-6.0234.110 combined electrode was used. Equilibrium measurements were carried out at a constant ionic strength (0.15 M NaNO3) in 6 mL samples at 25 °C under magnetic stirring and N2 bubbling. The titrations were made in the pH range 1.7–12.0. KH-phthalate (pH = 4.005) and borax (pH = 9.177) buffers were used to calibrate the pH meter. For the calculation of [H^+] from the measured pH values, the method proposed by Irving et al. was used. A 0.01 M HNO3 solution was titrated with the standardized NaOH solution in the presence of 0.15 M NaNO3 ionic strength.

[6] = Protonation constants of the ligands (pH-potentiometry, spectrophotometry); assay type: physicochemical; conditions: 0.15 M NaNO3, 25 °C; for logK1^H / logK2^H / logK3^H / logK4^H: pH-potentiometry; for ΣlogK1–4^H: total basicity
Protocol: Since the thermodynamic properties of any metal complex proposed for in vivo applications must be characterized by high thermodynamic stability, the equilibrium properties of AMPTA, AMPDA-HB, and CD3A-Bn ligands and their Al(III) complexes were investigated in detail. First, the protonation constants of the ligands, defined by Equation (1), were determined by pH-potentiometry and the logKi^H values are listed in Table 1. (1) KiH=HiL/Hi−1LH^+
as §1, with “strength. The differences (A) between the measured (pHread) and calculated pH (−log[H^+]) values were used to obtain the equilibrium H^+ concentration from the pH values measured in the titration experiments (A = −0.035). The waiting time between two pH measurements was 60 s. For the equilibrium calculations, the stoichiometric water ionic product (pKw) was also needed to calculate [OH^−] values under basic conditions. The VNaOH-pHread data pairs of the HNO3NaOH titration obtained in the pH range 10.5–12.0 were used to calculate the pKw value (pKw = 13.78). The protonation and stability constants were calculated with the PSEQUAD program.” for “strength.”

[7] = set-up: method as in PMID 31830368; conditions: cited from earlier work
[8] = set-up: method as in PMID 31830368; conditions: up to 4 h in PBS, serum, and EDTA solutions; cited from earlier work
[9] = Protonation constants of the ligands (pH-potentiometry, spectrophotometry); assay type: physicochemical; conditions: 0.15 M NaNO3, 25 °C

Structure (SMILES): O=C([O-])CN(CCN(CC(=O)O)CC(=O)O)CC(=O)O.[Na+] [[Na(EDTA)]^3−]
logKNaL [1]: 1.43

Structure (SMILES): O=C(O)CN(CC(=O)O)[C@@H]1CCCC[C@H]1N(CC(=O)O)CC(=O)O (relative stereo) [CDTA, trans-1,2-diaminocyclohexane-N,N,N′,N′-tetraacetic acid]
logK1^H ([2]; 0.15 M NaNO3, 25 °C): 9.54
logK2^H ([2]; 0.15 M NaNO3, 25 °C): 6.08
logK3^H ([2]; 0.15 M NaNO3, 25 °C): 3.65
logK4^H ([2]; 0.15 M NaNO3, 25 °C): 2.69
logK5^H ([2]; 0.15 M NaNO3, 25 °C): 1.14
ΣlogK1–4^H ([2]; 0.15 M NaNO3, 25 °C): 21.96
logKAlLH−1 [3]: 7.70 ^e
logβAlLH−1 [3]: 11.2 ^e
logKAlL [3]: 18.9 ^e

Structure (SMILES): O=C([O-])CN1CCN(CC(=O)[O-])CCN(CC(=O)[O-])CC1.[Al+3] [[Al(NOTA)]]
KAl(L)H−2 (KAl(NOTA)H−1 for [Al(NOTA)]) ([4]; 25 °C): 1.6 × 10^12 c M^−1
k0 ([4]; 25 °C): 2e-06 s⁻¹
k1 (kOH for [Al(NOTA)]) ([4]; 25 °C): 6.8 × 10^−6 b M^−1 s^−1
logKAl(L)H−2 ([4]; 25 °C): 12.2
kd (pH = 7.4) ([4]; pH 7.4, 25 °C): 2 × 10^−6 s^−1
t1/2 (pH = 7.4), dissociation half-life (ln2/kd) ([4]; pH 7.4, 25 °C): 94 h

logβAlLH−1 [5]: 9.3 (1)
logKAlLH−1 [5]: 5.20 (4)
logKAlL [5]: 14.5 (1) ^d
logK1^H [6]: 10.72 (2)
logK2^H [6]: 5.22 (3)
logK3^H [6]: 3.34 (3)
logK4^H [6]: 0.59 (9)
ΣlogK1–4^H [6]: 19.87
Structure (SMILES): O=C(O)CN(CC(=O)O)[C@@H]1CCCC[C@H]1N(CC(=O)O)Cc1ccccc1 [CD3A-Bn, trans-1,2-diaminocyclohexane-N-benzyl-N,N′,N′-triacetic acid]

Structure (SMILES): O=C([O-])CN(CC(=O)O)C1CCCCC1N(CC(=O)O)CC(=O)O.[Na+] (stereo not shown) [[Na(CDTA)]^3−]
logKNaL [1]: 4.66

Structure (SMILES): Oc1ccccc1 [phenol]
logK^H ([2]; 0.1 M NaClO4): 10.0

logβAlLH−1 [5]: 9.8 (1)
logKAlLH−1 [5]: 5.06 (6)
logKAlL [5]: 14.9 (1) ^d
logK1^H [6]: 11.49 (1)
logK2^H [6]: 5.56 (4)
logK3^H [6]: 2.75 (5)
logK4^H [6]: 1.73 (5)
ΣlogK1–4^H [6]: 21.53
Structure (SMILES): O=C(O)CN(CC(=O)O)CC1CCCCN1CC(=O)O (stereo not shown) [AMPTA]
logK1^H ([2]; 0.15 M NaCl, 25 °C): 11.67
logK2^H ([2]; 0.15 M NaCl, 25 °C): 5.47
logK3^H ([2]; 0.15 M NaCl, 25 °C): 2.74
logK4^H ([2]; 0.15 M NaCl, 25 °C): 1.62
ΣlogK1–4^H ([2]; 0.15 M NaCl, 25 °C): 21.50

logβAlLH−1 [5]: 11.7 (1)
logKAlLH−1 [5]: 6.94 (6)
logKAlL [5]: 18.6 (1) ^d
logK3^H [6]: 4.94 (5)
logK4^H [6]: 2.01 (5)
ΣlogK1–4^H [6]: 28.87
logK1^H [9]: 12.0 (1) ^b
logK2^H [9]: 9.92 (5) ^b
Structure (SMILES): O=C(O)CN(Cc1ccccc1O)CC1CCCCN1CC(=O)O (stereo not shown) [AMPDA-HB]
logK1^H ([2]; 0.15 M NaCl, 25 °C): 12.4
logK2^H ([2]; 0.15 M NaCl, 25 °C): 10.14
logK3^H ([2]; 0.15 M NaCl, 25 °C): 4.76
logK4^H ([2]; 0.15 M NaCl, 25 °C): 1.91
ΣlogK1–4^H ([2]; 0.15 M NaCl, 25 °C): 29.21
excretion of the [Al18F]-labelled complex in vivo [7]: rapid hepatobiliary and renal excretion
accumulation in the bones of the [Al18F]-labelled complex ([7]; in vivo): low accumulation in the bones
stability in vitro of the [Al18F]-labelled complex [8]: high stability

Structure (SMILES): O=C(O)CN(CCN(CC(=O)O)CC(=O)O)CC(=O)O [EDTA]
logK1^H ([2]; 0.15 M NaNO3, 25 °C): 9.40
logK2^H ([2]; 0.15 M NaNO3, 25 °C): 6.10
logK3^H ([2]; 0.15 M NaNO3, 25 °C): 2.72
logK4^H ([2]; 0.15 M NaNO3, 25 °C): 2.08
logK5^H ([2]; 0.15 M NaNO3, 25 °C): 1.23
ΣlogK1–4^H ([2]; 0.15 M NaNO3, 25 °C): 20.30
logKAlLH−1 [3]: 6.0 ^e
logβAlLH−1 [3]: 10.5 ^e
logKAlL [3]: 16.5 ^e

From article PMC10180113, “Thermodynamic and Kinetic Stabilities of Al(III) Complexes with N2O3 Pentadentate Ligands” (Molecules, 2023)
